Entries after “also recorded” stand apart in the source; their conditions may differ.
Test: Safety and tolerability (NCI CTC version 2 toxicity grades) of ATP infusion, Phase I study
Assay type: in vivo, human
Experimental: Two of the seven evaluable patients had advanced prostate cancer with bone metastases and one each had advanced mesothelioma, metastatic breast cancer, metastatic melanoma, metastatic colon cancer and renal cell carcinoma.
The 50 μg/kg/min dose could be reduced to 25 μg/kg/min if adverse effects occurred. […] Succeeding infusions in that patient were at the infusion dose tolerated at the end of the previous treatment. If adverse events occurred in patients being infused at 25 μg/kg/min, the infusions were terminated and the patient received no additional infusions.

SMILES: Nc1ncnc2c1ncn2[C@@H]1O[C@H](COP(=O)(O)OP(=O)(O)OP(=O)(O)O)[C@@H](O)[C@H]1O [ATP, adenosine 5′-triphosphate]
- Lab. Toxicity (Patient 501): Nil noted
- Clin. Toxicity and CTC-Grade (Patient 501, Ca Colon, 50 & 75 μg/kg/min, Weeks 1&2): I Flushing
- Lab. Toxicity (Patient 502): Nil noted
- Clin. Toxicity and CTC-Grade (Patient 502, Mesothelioma, 50, 75, & 100 μg/kg/min, Weeks 1-8): I Chest D/Dysp; also recorded: I Flushing; also recorded: I Anxiety
- Lab. Toxicity: Hb decreased, Grade II (Patient 503): Hb 8.0 g/dl
- Clin. Toxicity and CTC-Grade (Patient 503, Prostate, 50, 75, & 100 μg/kg/min, Weeks 1-8): II Confusion -
- Lab. Toxicity (Patient 504): Nil noted
- Lab. Toxicity (Patient 505): Nil noted
- Clin. Toxicity and CTC-Grade (Patient 505, Melanoma, 50, 75 & 100 μg/kg/min, Weeks 1-8): I Flushing; also recorded: AVBlock/CHB
- Lab. Toxicity: bilirubin and LFT's - disease progression (Patient 506): Increasing
- Clin. Toxicity and CTC-Grade (Patient 506, Ca Colon, 50 & 75 & 100 μg/kg/min, Weeks 1-6): I Headache
- Lab. Toxicity (Patient 507): Nil noted
- Clin. Toxicity and CTC-Grade (Patient 507, Ca Prostate, 50, 75 & 100 μg/kg/min, Weeks 1-8): I Nasal stuffiness; also recorded: II increasing pain -
- Lab. Toxicity (Patient 508, 50 μg/kg/min, Week 1): Nil noted
- clinical toxicities (Patient 508, first infusion at 50 μg/kg/min): No clinical toxicities were noted
- Clin. Toxicity and CTC-Grade (Patient 509, Renal cell carcinoma, 50, 75 & 100 μg/kg/min, Weeks 1-8): I anxiety; also recorded: I nausea; also recorded: I vomiting
- Lab. Toxicity: AST/Alk Phos increase (Patient 509, at FU): At FU grade I
- patients tolerating the maximum allowable dose of 100 μg/kg/min (continuous 8 hour intravenous infusion, first nine patients): seven of nine
- tolerability in terminal patients (seen in patient 506): well tolerated
